Results as given in patent US20250213707A1, “COMPOUND FOR INCREASING EFFICACY OF ONCOLYTIC VIRUSES” (ABLEVIA BIOTECH GMBH, priority 2022, published 2025).

Tests used:
Type in all cases: binding
mAb Mac2-158 = assay: Epitope mapping of mAb Mac2-158 with circular peptides of human CD163 SRCR domain 1; details: circular peptides aligned to SRCR domain 1 of human CD163
Excerpt: As a result, the following sequences (as well as motifs derived therefrom) are highly suitable epitopes anti-CD163 antibodies and fragments thereof used as SADC biopolymer scaffold: […]

[1] = tested on: IgG from human donors (anti-measles virus antibodies); set-up: key: X: The peptides belonging to the Top 10% hits
[2] = tested on: IgG from human donors (anti-AAV antibodies); assay: Screen for anti-AAV antibodies in human sera, 2452 linear 15-amino-acid AAV peptides on microarrays (Table 1); set-up: key to group I: X: the deduplicated aggregate of the respective top 10 peptide hits for each donor was compiled and designated as group I; key to group II: X: the deduplicated aggregate of the respective top 25 peptide hits for each donor was compiled and designated as group II; key to group III: X: the deduplicated aggregate of the respective top 50 peptide hits for each donor was compiled and designated as group III; details: human donor IgG binding to linear 15-amino-acid AAV peptides on microarray, fluorescence; for group I: membership in deduplicated aggregate of top 10 peptide hits for each donor; for group II: membership in deduplicated aggregate of top 25 peptide hits for each donor; for group III: membership in deduplicated aggregate of top 50 peptide hits for each donor
Summary of the method: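 Peptide hits were grouped I to IV by pooling each donor's top 10, 25, 50 or 250 background-corrected fluorescence signals, after deduplication. Signals came from donor IgG, purified on protein G, bound to arrayed 15-residue linear peptides (2452 total) spanning 16 AAV sequences.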

mAb E10B10 = assay: Fine epitope mapping of mAb E10B10 with 1068 circular peptides from SRCR-1 to -3 of mouse CD163; details: circular peptides of 7, 10 and 13 amino acids from mouse CD163
Excerpt: The epitope of this antibody was fine mapped using circular peptide arrays, whereby the peptides were derived from mouse CD163.

Substance	peptide number among the top 20 peptide hits of mAb Mac2-158 (mAb Mac2-158)	top 10% [1]	group I [2]	group II [2]	group III [2]	rank by relative signal strength (top binding peptides of mAb E10B10) (mAb E10B10)
SESVPDPQPIGEPP (REGION 1..14: note = peptide derived from viral capsid protein) [SEQ ID NO: 1899]	09	X	X	X	X	
378 (ASAVTNAPGE) [compound 378]						11
373 (AVTNAPGEMKKEL) [compound 373]						06
TRPATAPQIGTVNS [SEQ ID NO: 1905]		X	X	X	X	
375 (SGSASAVTNAPGE) [compound 375]						08
ANNLTSTVQIFADS (REGION 1..14: note = peptide derived from viral capsid protein) [SEQ ID NO: 1895]		X	X	X	X	
377 (SAVTNAPGEM) [compound 377]						10
NYNKSVNVDFTVDT (REGION 1..14: note = peptide derived from viral capsid protein) [SEQ ID NO: 1903]	19	X	X	X	X	
KIFNIQVKEVTTSN (REGION 1..14: note = peptide derived from viral capsid protein) [SEQ ID NO: 1896]	20	X	X	X	X	
YDQQLKAGDNPYLK (REGION 1..14: note = peptide derived from viral capsid protein) [SEQ ID NO: 1924]		X	X	X	X	
379 (SAVTNAPGEMKKE) [compound 379]						12
374 (SASAVTNAPGEMK) [compound 374]						07
PEIQYTSNYNKSVN (REGION 1..14: note = peptide derived from viral capsid protein) [SEQ ID NO: 1921]		X	X	X	X	
376 (AVTNAPGEMK) [compound 376]						09
DEEEIRTTNPVATE (REGION 1..14: note = peptide derived from viral capsid protein) [SEQ ID NO: 1902]	18	X	X	X	X	
SNSQLIFAGPNPSG [SEQ ID NO: 1908]	03	X	X	X	X	
370 (VTNAPGEMKK) [compound 370]						03
372 (GSASAVTNAPGEM) [compound 372]						05
STNLQRGNLALGET [SEQ ID NO: 1894]		X	X	X	X	
GKKRPVDQSPQEPD (REGION 1..14: note = peptide derived from viral capsid protein) [SEQ ID NO: 1919]		X	X	X	X	
KTAPGKKRPVDQSP (REGION 1..14: note = peptide derived from viral capsid protein) [SEQ ID NO: 1920]		X	X	X	X	
369 (ASAVTNAPGEMKK) [compound 369]						02
371 (VTNAPGE) [compound 371]						04
368 (VTNAPGEMKKELR) [compound 368]						01
YLYYLNRTQGTTSG [SEQ ID NO: 1925]		X	X	X	X	
380 (TNAPGEMKKE) [compound 380]						13
